Measurements from patent US11716992B2, “5A5B6C tricyclic spirolactone derivative, preparation method therefor and use thereof” (NANKAI UNIVERSITY, priority 2017, dated 2023).
Values joined by “and” are separate entries in the source; they are usually repeats but may differ in a detail not shown here. Identical values can stand only once.

tested on: Caenorhabditis elegans; assay: Insecticidal activity against Caenorhabditis elegans; format: in vivo; conditions: Caenorhabditis elegans, 100 μg/mL; read-out: insecticidal activity, Caenorhabditis elegans

Row | Compound | pest or weed control at 100 µg/mL [%]
1 | C=CC[C@@H]1C[C@]2(O)CCO[C@@]23C[C@H]2O[C@H]2C[C@H]13 [Zyj07-31-2] | 8
2 | C=CC[C@@H]1C[C@]2(OC(C)=O)C[C@H](OC(C)=O)O[C@@]23C[C@H]2O[C@H]2C[C@H]13 [Zyj07-65-2] | 17
3 | C=CC[C@@H]1C[C@@]2(OC(C)=O)C[C@@H](CC=C)[C@H]3C[C@@H]4O[C@@H]4C[C@@]32O1 [Zyj07-67-2] | 20

tested on: Pellicularia sasakii; assay: Fungicidal activity, fungicide growth rate method, PS; format: cell-based; conditions: 50 μg/mL; read-out: fungicidal activity (growth inhibition rate), PS

Row | Compound | inhibition at 50 µg/mL [%]
4 | C=CC[C@@H]1C[C@]2(O)CCO[C@@]23C[C@H]2O[C@H]2C[C@H]13 [Zyj07-31-2] | 18
5 | C=CC[C@@H]1C[C@]2(OC(C)=O)C[C@H](OC(C)=O)O[C@@]23C[C@H]2O[C@H]2C[C@H]13 [Zyj07-65-2] | 0
6 | C=CC[C@@H]1C[C@@]2(OC(C)=O)C[C@@H](CC=C)[C@H]3C[C@@H]4O[C@@H]4C[C@@]32O1 [Zyj07-67-2] | 36

tested on: Helicoverpa armigera (Hübner); assay: Insecticidal activity against Helicoverpa armigera (Hübner); format: in vivo; conditions: Helicoverpa armigera; 100 μg/mL; read-out: insecticidal activity, Helicoverpa armigera (Hübner)

Row | Compound | pest or weed control at 100 µg/mL [%]
7 | C=CC[C@@H]1C[C@]2(O)CCO[C@@]23C[C@H]2O[C@H]2C[C@H]13 [Zyj07-31-2] | 0
8 | C=CC[C@@H]1C[C@]2(OC(C)=O)C[C@H](OC(C)=O)O[C@@]23C[C@H]2O[C@H]2C[C@H]13 [Zyj07-65-2] | 10
9 | C=CC[C@@H]1C[C@@]2(OC(C)=O)C[C@@H](CC=C)[C@H]3C[C@@H]4O[C@@H]4C[C@@]32O1 [Zyj07-67-2] | 0

tested on: Alternaria solani; assay: Fungicidal activity, fungicide growth rate method, AS; format: cell-based; conditions: Alternaria solani, 50 μg/mL; read-out: fungicidal activity (growth inhibition rate), AS

Row | Compound | inhibition at 50 µg/mL [%]
10 | C=CC[C@@H]1C[C@]2(O)CCO[C@@]23C[C@H]2O[C@H]2C[C@H]13 [Zyj07-31-2] | 22
11 | C=CC[C@@H]1C[C@]2(OC(C)=O)C[C@H](OC(C)=O)O[C@@]23C[C@H]2O[C@H]2C[C@H]13 [Zyj07-65-2] | 0
12 | C=CC[C@@H]1C[C@@]2(OC(C)=O)C[C@@H](CC=C)[C@H]3C[C@@H]4O[C@@H]4C[C@@]32O1 [Zyj07-67-2] | 0

tested on: Phytophthora infestans (Mont.) de Bary; assay: microbe, parasite or virus in culture; format: cell-based; conditions: Phytophthora infestans, read-out: fungicidal activity (growth inhibition rate), PI, 50 μg/mL

Row | Compound | inhibition at 50 µg/mL [%]
13 | C=CC[C@@H]1C[C@]2(O)CCO[C@@]23C[C@H]2O[C@H]2C[C@H]13 [Zyj07-31-2] | 21
14 | C=CC[C@@H]1C[C@]2(OC(C)=O)C[C@H](OC(C)=O)O[C@@]23C[C@H]2O[C@H]2C[C@H]13 [Zyj07-65-2] | 25
15 | C=CC[C@@H]1C[C@@]2(OC(C)=O)C[C@@H](CC=C)[C@H]3C[C@@H]4O[C@@H]4C[C@@]32O1 [Zyj07-67-2] | 25

tested on: Botrytis cinerea; assay: Fungicidal activity, fungicide growth rate method, BC; format: cell-based; conditions: Botrytis cinerea, 50 μg/mL; read-out: fungicidal activity (growth inhibition rate), BC

Row | Compound | inhibition at 50 µg/mL [%]
16 | C=CC[C@@H]1C[C@]2(O)CCO[C@@]23C[C@H]2O[C@H]2C[C@H]13 [Zyj07-31-2] | 18
17 | C=CC[C@@H]1C[C@]2(OC(C)=O)C[C@H](OC(C)=O)O[C@@]23C[C@H]2O[C@H]2C[C@H]13 [Zyj07-65-2] | 41
18 | C=CC[C@@H]1C[C@@]2(OC(C)=O)C[C@@H](CC=C)[C@H]3C[C@@H]4O[C@@H]4C[C@@]32O1 [Zyj07-67-2] | > 50

tested on: Physalospora piricola; assay: Fungicidal activity, fungicide growth rate method, PP; format: cell-based; conditions: 50 μg/mL; read-out: fungicidal activity (growth inhibition rate), PP

Row | Compound | inhibition at 50 µg/mL [%]
19 | C=CC[C@@H]1C[C@]2(O)CCO[C@@]23C[C@H]2O[C@H]2C[C@H]13 [Zyj07-31-2] | 31
20 | C=CC[C@@H]1C[C@]2(OC(C)=O)C[C@H](OC(C)=O)O[C@@]23C[C@H]2O[C@H]2C[C@H]13 [Zyj07-65-2] | 12
21 | C=CC[C@@H]1C[C@@]2(OC(C)=O)C[C@@H](CC=C)[C@H]3C[C@@H]4O[C@@H]4C[C@@]32O1 [Zyj07-67-2] | 13

tested on: Ostrinia furnacalis; assay: Insecticidal activity against Ostrinia furnacalis; format: in vivo; conditions: Ostrinia furnacalis; 100 μg/mL; read-out: insecticidal activity, Ostrinia furnacalis

Row | Compound | pest or weed control at 100 µg/mL [%]
22 | C=CC[C@@H]1C[C@]2(O)CCO[C@@]23C[C@H]2O[C@H]2C[C@H]13 [Zyj07-31-2] | 0
23 | C=CC[C@@H]1C[C@]2(OC(C)=O)C[C@H](OC(C)=O)O[C@@]23C[C@H]2O[C@H]2C[C@H]13 [Zyj07-65-2] | 5
24 | C=CC[C@@H]1C[C@@]2(OC(C)=O)C[C@@H](CC=C)[C@H]3C[C@@H]4O[C@@H]4C[C@@]32O1 [Zyj07-67-2] | 0

tested on: Tobacco Mosaic Virus; assay: Anti-TMV inactivation activity on tobacco plants; format: in vivo; parameters: concentration or dose not given beside the values; conditions: compound mixed with TMV solution 30 minutes, lesions checked three days later

Row | Compound | TMV inactivation (anti-TMV activity) [%]
25 | C=CC[C@@H]1C[C@]2(O)CCO[C@@]23C[C@H]2O[C@H]2C[C@H]13 [Zyj07-31-2] | 15
26 | C=CC[C@@H]1C[C@]2(OC(C)=O)C[C@H](OC(C)=O)O[C@@]23C[C@H]2O[C@H]2C[C@H]13 [Zyj07-65-2] | 29
27 | C=CC[C@@H]1C[C@@]2(OC(C)=O)C[C@@H](CC=C)[C@H]3C[C@@H]4O[C@@H]4C[C@@]32O1 [Zyj07-67-2] | 29

tested on: Cercospora arachidicola; assay: Fungicidal activity, fungicide growth rate method, CA; format: cell-based; conditions: Mycosphaerella arachidis, 50 μg/mL; read-out: fungicidal activity (growth inhibition rate), CA

Row | Compound | inhibition at 50 µg/mL [%]
28 | C=CC[C@@H]1C[C@]2(O)CCO[C@@]23C[C@H]2O[C@H]2C[C@H]13 [Zyj07-31-2] | 27
29 | C=CC[C@@H]1C[C@]2(OC(C)=O)C[C@H](OC(C)=O)O[C@@]23C[C@H]2O[C@H]2C[C@H]13 [Zyj07-65-2] | 24
30 | C=CC[C@@H]1C[C@@]2(OC(C)=O)C[C@@H](CC=C)[C@H]3C[C@@H]4O[C@@H]4C[C@@]32O1 [Zyj07-67-2] | 24

tested on: wheat Gibberella zeae; assay: microbe, parasite or virus in culture; format: cell-based; conditions: Fusarium graminearum, read-out: fungicidal activity (growth inhibition rate), GZ, 50 μg/mL

Row | Compound | inhibition at 50 µg/mL [%]
31 | C=CC[C@@H]1C[C@]2(O)CCO[C@@]23C[C@H]2O[C@H]2C[C@H]13 [Zyj07-31-2] | 3
32 | C=CC[C@@H]1C[C@]2(OC(C)=O)C[C@H](OC(C)=O)O[C@@]23C[C@H]2O[C@H]2C[C@H]13 [Zyj07-65-2] | 0
33 | C=CC[C@@H]1C[C@@]2(OC(C)=O)C[C@@H](CC=C)[C@H]3C[C@@H]4O[C@@H]4C[C@@]32O1 [Zyj07-67-2] | 0

tested on: Mythimna separate (Walker); assay: Insecticidal activity against Mythimna separate (Walker); format: in vivo; conditions: Mythimna, 100 μg/mL; read-out: insecticidal activity, Mythimna separate (Walker)

Row | Compound | pest or weed control at 100 µg/mL [%]
34 | C=CC[C@@H]1C[C@]2(O)CCO[C@@]23C[C@H]2O[C@H]2C[C@H]13 [Zyj07-31-2] | > 30
35 | C=CC[C@@H]1C[C@]2(OC(C)=O)C[C@H](OC(C)=O)O[C@@]23C[C@H]2O[C@H]2C[C@H]13 [Zyj07-65-2] | > 30
36 | C=CC[C@@H]1C[C@@]2(OC(C)=O)C[C@@H](CC=C)[C@H]3C[C@@H]4O[C@@H]4C[C@@]32O1 [Zyj07-67-2] | 0

tested on: not given; assay: not given; conditions: not given

Row | Compound | melting point [°C]
37 | C=CC[C@@H]1C[C@@]2(OC(C)=O)C[C@@H](CC=C)[C@H]3C[C@@H]4O[C@@H]4C[C@@]32O1 [Zyj07-67-2] | 100 to 102

tested on: Rhizoctonia cerealis; assay: Fungicidal activity, fungicide growth rate method, RC; format: cell-based; conditions: Ceratobasidium cereale, 50 μg/mL; read-out: fungicidal activity (growth inhibition rate), RC

Row | Compound | inhibition at 50 µg/mL [%]
38 | C=CC[C@@H]1C[C@]2(O)CCO[C@@]23C[C@H]2O[C@H]2C[C@H]13 [Zyj07-31-2] | 21
39 | C=CC[C@@H]1C[C@]2(OC(C)=O)C[C@H](OC(C)=O)O[C@@]23C[C@H]2O[C@H]2C[C@H]13 [Zyj07-65-2] | 7
40 | C=CC[C@@H]1C[C@@]2(OC(C)=O)C[C@@H](CC=C)[C@H]3C[C@@H]4O[C@@H]4C[C@@]32O1 [Zyj07-67-2] | 29

tested on: Sclerotinia sclerotiorum; assay: Fungicidal activity, fungicide growth rate method, SS; format: cell-based; conditions: Sclerotinia sclerotiorum, 50 μg/mL

Row | Compound | inhibition at 50 µg/mL [%]
41 | C=CC[C@@H]1C[C@]2(O)CCO[C@@]23C[C@H]2O[C@H]2C[C@H]13 [Zyj07-31-2] | > 50
42 | C=CC[C@@H]1C[C@]2(OC(C)=O)C[C@H](OC(C)=O)O[C@@]23C[C@H]2O[C@H]2C[C@H]13 [Zyj07-65-2] | 24
43 | C=CC[C@@H]1C[C@@]2(OC(C)=O)C[C@@H](CC=C)[C@H]3C[C@@H]4O[C@@H]4C[C@@]32O1 [Zyj07-67-2] | > 50

tested on: Apis mellifera ligustica Spin; assay: not given; conditions: dosage 6.51 μg a.i./bee

Row | Compound | Death rate after 48 h (%)
44 | C=CC[C@@H]1C[C@]2(O)CCO[C@@]23C[C@H]2O[C@H]2C[C@H]13 [Zyj07-31-2] | 0

same assay, conditions: dosage 6.51 μg a.i./bee; per replicate of 10 bees

Row | Compound | Death number after 24 h | Death number after 48 h
45 | C=CC[C@@H]1C[C@]2(O)CCO[C@@]23C[C@H]2O[C@H]2C[C@H]13 [Zyj07-31-2] | 0 | 0

same assay, conditions: dosage 9.36 μg a.i./bee

Row | Compound | Death rate after 48 h (%)
46 | C=CC[C@@H]1C[C@]2(O)CCO[C@@]23C[C@H]2O[C@H]2C[C@H]13 [Zyj07-31-2] | 10.0

same assay, conditions: dosage 9.36 μg a.i./bee; per replicate of 10 bees

Row | Compound | Death number after 24 h | Death number after 48 h
47 | C=CC[C@@H]1C[C@]2(O)CCO[C@@]23C[C@H]2O[C@H]2C[C@H]13 [Zyj07-31-2] | 0 | 1

same assay, conditions: dosage 9.57 μg a.i./bee

Row | Compound | Death rate after 48 h (%)
48 | C=CC[C@@H]1C[C@]2(OC(C)=O)C[C@H](OC(C)=O)O[C@@]23C[C@H]2O[C@H]2C[C@H]13 [Zyj07-65-2] | 5.0

same assay, conditions: dosage 9.57 μg a.i./bee; per replicate of 10 bees

Row | Compound | Death number after 24 h | Death number after 48 h
49 | C=CC[C@@H]1C[C@]2(OC(C)=O)C[C@H](OC(C)=O)O[C@@]23C[C@H]2O[C@H]2C[C@H]13 [Zyj07-65-2] | 0 | 0 and 1

same assay, conditions: dosage 10.9 μg a.i./bee

Row | Compound | Death rate after 48 h (%)
50 | C=CC[C@@H]1C[C@]2(OC(C)=O)C[C@H](OC(C)=O)O[C@@]23C[C@H]2O[C@H]2C[C@H]13 [Zyj07-65-2] | 0

same assay, conditions: dosage 10.9 μg a.i./bee; per replicate of 10 bees

Row | Compound | Death number after 24 h | Death number after 48 h
51 | C=CC[C@@H]1C[C@]2(OC(C)=O)C[C@H](OC(C)=O)O[C@@]23C[C@H]2O[C@H]2C[C@H]13 [Zyj07-65-2] | 0 | 0
